≈ marks a conversion by molar mass, not a printed value.
Assays:
[1] = system: Lepomis macrochirus; conditions: acute; duration: 96 hours; mortality
[2] = system: Apis mellifera; conditions: acute, duration: 48 hours, mortality
[3] = system: Rattus norvegicus
[4] = system: Oncorhynchus mykiss
[5] = system: Daphnia magna; conditions: chronic/long-term; duration: 21 days; reproduction
[6] = system: Bibionidae; conditions: chronic/long-term; duration: 28 days
[7] = system: Tagia sp.; conditions: acute; duration: 14 days; mortality
[8] = system: Canidae; conditions: oral, Dog Other
[9] = system: Colinus virginianus; conditions: oral

Compound `CC1(c2ccc(Oc3ccccc3)cc2)OC(=O)N(Nc2ccccc2)C1=O` (centres undefined) [Famoxadone] has an LC50 [1] of 0.013 µg/mL (≈ 0.0347 µM), an LD50 ([2]; dermal) greater than 25 µg/piece and an LD50 ([2]; oral, unspecified) greater than 63 µg/piece. For the same compound, the LD50 ([3]; acute, mortality) was greater than 5000 mg/kg, the NOAEL ([3]; developmental, development) was 11.3 mg/kg-day and the LC50 ([4]; acute, duration: 96 hours, mortality) was 0.011 µg/mL (≈ 0.0294 µM). It also gave an NOEC ([4]; chronic/long-term, duration: 90 days, growth) of 0.014 mg/L, an NOEC [5] of 0.0037 mg/L and an NOEC [6] of 0.01 mg/L. For the same compound, the LC50 [7] was 470 mg/kg, the NOAEL ([8]; chronic, duration: 1 years, ophthalmoscopic examination) was 1.2 mg/kg-day and the NOAEL ([8]; subchronic, duration: 90 days, clinical signs) was 10 mg/kg-day. It also gave an LD50 ([9]; acute, mortality) greater than 2250 mg/kg-day and an NOEC ([9]; short-term, diet) of 5620 mg/kg-day.
